According to publication PMC8854719, “Phase 1A/1B dose-escalation and -expansion study to evaluate the safety, pharmacokinetics, food effects and antitumor activity of pamiparib in advanced solid tumours” (British Journal of Cancer, 2021):

Tested on: advanced solid tumours
Test: Tumour response and PFS per RECIST v1.1, overall efficacy-evaluable population
Type: in vivo, human
Protocol: Pamiparib in plasma was measured using a validated liquid chromatography-tandem–mass spectrometry assay with a lower limit of quantification of 1.0 ng/mL. The collection schedule for blood samples used to assess the PK profile is presented in the Supplemental Appendix. Summary PK parameters, including area under the concentration-time curve from time 0 to 9 h (AUC0-9) or infinity (AUC0-inf), maximal plasma concentration (Cmax) and time to maximal plasma concentration (Tmax), were estimated. The pharmacodynamic (PD) activity of pamiparib was explored through the evaluation of poly(ADP-ribose [PAR]) formation in peripheral blood mononuclear cells (PBMCs) after pamiparib administration. The schedule for blood sample collection (PK and PBMCs) and additional assessment information for PAR levels in PBMCs and pharmacodynamic activity is presented in the Supplemental Appendix. Antitumor activity was assessed by radiographic imaging (computed tomography or magnetic resonance imaging) during screening, within 28 days of first pamiparib dose, every 6 weeks in the first 12 months and every 9 weeks thereafter.
Tumour response was evaluated by RECIST v1.1. For patients with ovarian cancer, tumour response was assessed per RECIST v1.1 and by Gynecologic Cancer Intergroup (GCIG) CA-125 criteria. Tumour response for patients with prostate cancer was assessed by Prostate Cancer Clinical Trials Working Group 2 (PCWG2) criteria. Objective response rate (ORR) was defined as the proportion of patients achieving a confirmed complete response (CR) or partial response (PR) on study treatment. Blood tumour antigens (e.g., carcinoembryonic antigen for colorectal cancer, CA-125 for ovarian cancer and prostate-specific antigen [PSA] for mCRPC) were assessed during screening, every 6 weeks after the first pamiparib dose in the first 12 months, and every 9 weeks thereafter.
The safety population comprised all patients in the dose-escalation and dose-expansion phases who received at least one dose of pamiparib (Supplementary Table S2). Patients in the safety analysis set for whom valid pamiparib PK parameters were estimated and for whom evaluable PD results were available represented the PK population and the PD population, respectively. The efficacy-evaluable population included patients in the safety analysis set who had at least one evaluable postbaseline tumour assessment or those who discontinued due to clinical disease progression or early death before tumour assessment could be performed. The EOC efficacy-evaluable population was a subset of the overall efficacy-evaluable population that included patients with EOC from both the dose-escalation and dose-expansion phases. Patients in the dose-expansion phase without measurable disease at baseline per RECIST v1.1 were excluded from the efficacy-evaluable population.
Descriptive statistics were used to summarise all study data (see Supplemental Appendix). Progression-free survival (PFS) and event-free rates were estimated using the Kaplan–Meier method along with the corresponding 95% CI. Pharmacokinetic parameters were derived using standard non-compartmental methods with Phoenix WinNonlin Version 6.4 or higher (Pharsight Corp., Mountain View, California).

[1] = BID efficacy-evaluable population (n = 77)
[2] = Total BID dosage group, overall efficacy-evaluable (n = 77)
[3] = dose escalation, 2.5 mg BID (n=4)
[4] = dose escalation, 5.0 mg BID (n=3)
[5] = dose escalation, 10 mg BID (n=3)

For C[C@]12CCCN1CC1=NNC(=O)c3cc(F)cc4[nH]c2c1c34 [pamiparib], the “Median duration of response” value (BID dosage group) was 14.9 months, the “Confirmed CRs” value [1] was 5.2% and the “Confirmed PRs” value [1] was 22.1%. For the same compound, the “Confirmed CRs (in words)” value (QD dosage group (n=18)) was “no confirmed CRs”, the “Confirmed ORR” value (QD dosage group (n=18)) was 11.1% and the “Confirmed PRs” value (QD dosage group (n=18)) was 11.1%. For the same compound, the “Event-free rate, 1 year” value (Total (N=95)) was 32.7 (21.73-44.18) % (95% CI), the “Event-free rate, 2 years” value (Total (N=95)) was 11.0 (4.13-21.80) % (95% CI) and the “PFS censored: New anticancer therapy received before event” value (Total (N=95)) was 1 (1.1) n (%). The “PFS censored: No disease progression or death” value (Total (N=95)) was 27 (28.4) n (%), the “PFS censored: No postbaseline assessment” value (Total (N=95)) was 5 (5.3) n (%) and the “PFS censored: ≥2 consecutive missed assessments” value (Total (N=95)) was 2 (2.1) n (%). For the same compound, the “PFS events: Death” value (Total (N=95)) was 10 (10.5) n (%), the “PFS events: Disease progression” value (Total (N=95)) was 50 (52.6) n (%) and the “PFS: Censored” value (Total (N=95)) was 35 (36.8) n (%). The “PFS: Events” value (Total (N=95)) was 60 (63.2) n (%), the “Progression-Free Survival, Median” value (Total (N=95)) was 5.5 (4.14-8.31) months (95% CI) and the “Event-free rate, 1 year” value (Total BID Dosage Group (n=77)) was 34.0 (21.72-46.58) % (95% CI). For the same compound, the “Event-free rate, 2 years” value (Total BID Dosage Group (n=77)) was 12.2 (4.52-24.01) % (95% CI), the “PFS censored: New anticancer therapy received before event” value (Total BID Dosage Group (n=77)) was 1 (1.3) n (%) and the “PFS censored: No disease progression or death” value (Total BID Dosage Group (n=77)) was 20 (26.0) n (%). For the same compound, the “PFS censored: No postbaseline assessment” value (Total BID Dosage Group (n=77)) was 5 (6.5) n (%), the “PFS censored: ≥2 consecutive missed assessments” value (Total BID Dosage Group (n=77)) was 2 (2.6) n (%) and the “PFS events: Death” value (Total BID Dosage Group (n=77)) was 7 (9.1) n (%). For the same compound, the “PFS events: Disease progression” value (Total BID Dosage Group (n=77)) was 42 (54.5) n (%), the “PFS: Censored” value (Total BID Dosage Group (n=77)) was 28 (36.4) n (%) and the “PFS: Events” value (Total BID Dosage Group (n=77)) was 49 (63.6) n (%). For the same compound, the “Progression-Free Survival, Median” value (Total BID Dosage Group (n=77)) was 6.9 (4.14-9.89) months (95% CI), the “Best overall response: Complete response” value [2] was 4 (5.2) n (%) and the “Best overall response: Not assessed” value [2] was 7 (9.1) n (%). For the same compound, the “Best overall response: Not evaluable” value [2] was 1 (1.3) n (%), the “Best overall response: Partial response” value [2] was 17 (22.1) n (%) and the “Best overall response: Progressive disease” value [2] was 11 (14.3) n (%). The “Best overall response: Stable disease” value [2] was 37 (48.1) n (%), the Clinical benefit rate [2] was 39.0 (28.1–50.8) % (95% CI) and the Disease control rate [2] was 75.3 (64.2–84.4) % (95% CI). For the same compound, the Objective response rate [2] was 27.3 (17.7–38.6) % (95% CI), the “Event-free rate, 1 year” value (Total QD Dosage Group (n=18)) was 30.1 (8.73-55.34) % (95% CI) and the “Event-free rate, 2 years” value (Total QD Dosage Group (n=18)) was 0.0 (NE-NE) % (95% CI). For the same compound, the “PFS censored: New anticancer therapy received before event” value (Total QD Dosage Group (n=18)) was 0 (0) n (%), the “PFS censored: No disease progression or death” value (Total QD Dosage Group (n=18)) was 7 (38.9) n (%) and the “PFS censored: No postbaseline assessment” value (Total QD Dosage Group (n=18)) was 0 (0) n (%). The “PFS censored: ≥2 consecutive missed assessments” value (Total QD Dosage Group (n=18)) was 0 (0) n (%), the “PFS events: Death” value (Total QD Dosage Group (n=18)) was 3 (16.7) n (%) and the “PFS events: Disease progression” value (Total QD Dosage Group (n=18)) was 8 (44.4) n (%). The “PFS: Censored” value (Total QD Dosage Group (n=18)) was 7 (38.9) n (%), the “PFS: Events” value (Total QD Dosage Group (n=18)) was 11 (61.1) n (%) and the “Progression-Free Survival, Median” value (Total QD Dosage Group (n=18)) was 4.9 (3.22-12.32) months (95% CI). The “Best overall response: Complete response” value [3] was 0 (0.0) n (%), the “Best overall response: Not assessed” value [3] was 2 (50.0) n (%) and the “Best overall response: Not evaluable” value [3] was 0 (0.0) n (%). The “Best overall response: Partial response” value [3] was 1 (25.0) n (%), the “Best overall response: Progressive disease” value [3] was 1 (25.0) n (%) and the “Best overall response: Stable disease” value [3] was 0 (0.0) n (%). For the same compound, the Clinical benefit rate [3] was 25.0 (0.63-80.59) % (95% CI), the Disease control rate [3] was 25.0 (0.63-80.59) % (95% CI) and the Objective response rate [3] was 25.0 (0.63-80.59) % (95% CI). The “Best overall response: Complete response” value [4] was 0 (0.0) n (%), the “Best overall response: Not assessed” value [4] was 1 (33.3) n (%) and the “Best overall response: Not evaluable” value [4] was 0 (0.0) n (%). The “Best overall response: Partial response” value [4] was 1 (33.3) n (%), the “Best overall response: Progressive disease” value [4] was 0 (0.0) n (%) and the “Best overall response: Stable disease” value [4] was 1 (33.3) n (%). For the same compound, the Clinical benefit rate [4] was 33.3 (0.84-90.57) % (95% CI), the Objective response rate [4] was 33.3 (0.84-90.57) % (95% CI) and the “Best overall response: Complete response” value [5] was 0 (0.0) n (%). For the same compound, the “Best overall response: Not assessed” value [5] was 0 (0.0) n (%).
